Patent US8426194B2, “Methods and agents for screening for compounds capable of modulating VEGF expression” (PTC Therapeutics, Inc., priority 2003, dated 2013)

Tested on: VEGF UTRs
Assay: Luciferase reporter inhibition in B9 (VEGF UTRs) versus B12 (no VEGF UTRs) cell lines
Type: cell-based, human
Settings: B9 with VEGF 5'- and 3'-UTRs, B12 without
Experimental: A monocistronic reporter construct (pLuc/vegf5′+3′UTR) is under the transcriptional control of the CMV promoter and contains a VEGF IRES driving the luciferase reporter, which nucleic acid sequences are both upstream of a VEGF 3′-UTR. Stable cell lines are generated by transfecting 293 cells with the pLuc/vegf5′+3′UTR. A stable cell line is cultured under hygromycin B selection to create clonal cell lines consistent with protocols well known in the art. After two weeks of selection, clonal cell lines are screened for luciferase activity. The luciferase activity of several clonal cell lines (hereafter “clones”) are compared and normalized against total protein content. Clones are maintained under hygromycin B selection for more than three months with intermittent monitoring of luciferase activity. Clones are stable and maintain a high level of luciferase expression. Many clones, for example, about twenty, may be compared to each other with respect to luciferase activity. […] Particular parameters for clones are studied prior to selection for use in post-transcriptional, high-throughput screening (PTHTS). Relevant parameters for PTHTS include, but are not limited to, cell number, incubation time, DMSO concentration, and volume of substrate. The B9 cell line harbors the firefly luciferase reporter driven by the CMV promoter and flanked by the 5′- and 3′-UTRs of VEGF transcripts. […]

## COc1ccc(C[C@H](N)C(=O)N[C@H]2[C@@H](O)[C@H](n3cnc4c(N(C)C)ncnc43)O[C@@H]2CO)cc1 [puromycin]
  UTR specificity: luciferase inhibition in B9 versus B12 cell lines: does not change the difference of inhibition in luciferase expression in these two cell lines
